The values that follow come from patent US20180200259A1 (priority 2015, published 2018).

For one data set, the system named is Bv-2 microglial cells. Description: Aβ oligomer clearance measurement in Bv-2 microglial cell cultures. It counts as cell-based. As to conditions: 0.33 μM galantamine; 24 h before oligomerized Aβ1-42 (10 μM) for 6 h. As for the experimental part:
Aβ oligomers were prepared using beta-amyloid (1-42) from American Peptide (Product #62-0-80). One aliquot was dissolved in an adequate volume of TBS (50 mM Tris-Buffer, 150 mM NaCl, pH-7.4) to achieve a final concentration of 1.7 mg/ml (corresponding to 340 μM). The solution was sonicated for 2 minutes and then diluted 1:2 in water to obtain a final concentration of 170 μM. Next, the Aβ was allowed to aggregate at 4° C. for 48 hours. Prior to application, the solution was sonicated for another minute.
Bv-2 microglial cells were kept in culture medium (DMEM medium, 10% FBS, 2 mM glutamine, 1% Penc/Strep) until 80-90% confluency. Cells were maintained at 37° C., 95% humidity and 5% CO2. Afterwards, cells were seeded in culture medium on 24-well plates at a cell density of 1×10^5 cells per well. After 24 h, the medium was exchanged for the treatment medium (DMEM medium, 5% FBS, 2 mM glutamine). […] The medium was separated by affinity (removing monomers) and the oligomers not phagocytosed were disaggregated by hexafluoroisopropanol (HFIP) treatment and measured by MSD. […]
The immune assay was carried out according to the Mesoscale Discovery manual and plates were read on the Sector Imager (MSD). Analyte levels were evaluated according to adequate Aβ peptide standards (MSD). […] Data are presented as mean ±standard error of mean (SEM) Group differences are evaluated by one-way ANOVA.

In another data set the test system is Rat cortical neurons. Description: Neurite assessment: Aβ1-42 oligomer injury of cortical neurons (MAP-2). It counts as cell-based. The conditions noted are these: 1 μM; Aβ oligomer 20 μM, 24 h. As to the method:
Rat cortical neurons were cultured as described by Callizot et al (J Neurosci Res 2013; 91:706-716). On day II of culture, Aβ oligomer solution, 20 μM, was applied. The Aβ oligomer preparation, having an average weight of 90 kDa, prepared as described by Callizot et al (op cit) contained only diffusible species, not fibrils or protofibrils. Briefly, Aβ1-42 peptide at a concentration of 40 μM was dissolved in the culture medium, gently agitated for 3 days at 37° C. in the dark, and used immediately after dilution. Test compound and BDNF (50 ng/ml) were dissolved in culture medium (maximum of 0.1% DMSO final concentration) then pre-incubated with primary cortical neurons for 24 h before the Aβ1-42 oligomer solution application
The oligomers were incubated with the neurons and various concentrations of test compound or BDNF, 50 ng/ml, the positive control, for 24 hours, in 6 replicates per condition. Then the supernatant was removed and the neurons were fixed with a cold ethanol and acetic acid solution. The cells were permeabilized with 0.4% saponin and then incubated for 2 h with mouse monoclonal antibody […] microtubule-associated protein 2 (MAP-2). Subsequently, Alexa-Fluor 488 goat anti-mouse IgG was applied, and images were obtained and analyzed automatically.

Data set [1] relates to CA1 pyramidal neurons in the dorsal hippocampus. In words: Dendritic spine assessment (Afraxis ESP) after five days ip dosing. It counts as in vivo, mice. As to conditions: 0.1 mg/kg per day for five days. As to the method:
Adult C57B16 mice, (8 weeks old) were administered vehicle or test sample, 0.005, 0.03, 0.07, 0.1 or 0.2 mg/kg, ip, per day for five days prior to sacrifice after rapid anesthetization with isofluorane. Brain tissue was sectioned into […] slices from anterior to posterior extremes.
Ballistic dye labelling was performed, followed by laser-scanning confocal microscopy (Olympus FV1000) using a 63× objective (1.42 NA) to scan individually labelled neurons at high resolution (0.103×0.103×0.33 μm voxels). Target neurons were identified in the brain region of interest by anatomical location and cell morphology. Microscopy was performed blind to experimental conditions. A minimum of 5 samples per animal were measured for each segment.
Afraxis ESP dendritic spine analysis and assessment of dendritic membrane integrity. Blind deconvolution (AutoQuant) was applied to raw three-dimensional digital images which were then analyzed for spine density and morphology by trained analysts, individual spines were measured manually for (a) head diameter, (b) length, and (c) neck thickness from image Z-stacks using custom-built Afraxis ESP software. Each dendrite was analyzed by 3 independent analysts. […]
Statistics. […] For all group comparisons of parametric values, statistical significance was determined using the analysis of variance test (ANOVA; SPSS). […]

Data set [2] relates to adrenal chromaffin and human neuroblastoma cells. The conditions noted are these: comparison cholinesterase inhibitor; cited from earlier work.
Data set [3] deals with mild to moderate AD patients. The conditions noted are these: cited from earlier work.

Where a name gives a salt, the structure may show the parent alone. Read-outs that look alike come from different tables or passages of the source.

Regarding `COc1ccc2c3c1O[C@H]1C[C@@H](O)C=C[C@@]31CCN(C)C2` [Galantamine hydrobromide], the “Aβ1-42 oligomers in the medium” value with Bv-2 microglial cells is on record as “reduced Aβ1-42 oligomers in the medium significantly”. Besides, the “protective effect on neurite network reduced by Aβ oligomer” value with Rat cortical neurons was “significant protective effect”. Besides, in data set [1], the “spine density in apical dendritic samples” value is on record as “significant increase”.
Regarding `Nc1c2c(nc3ccccc13)CCCC2` [tacrine], the “neuroprotective effect against induced apoptosis” value in data set [2] is “did not occur”.
As for “Solanezumab: antibody directed at the central portion of Aβ”, the “functional decline as measured by the ADCS-ADL” value in data set [3] (Expedition I) is given as “not significantly affected”. The “reduction of functional decline as measured by the ADCS-ADL” value in data set [3] (Expedition II) is recorded as 19%. Further, the “additional cognitive deterioration on the ADAS-cog versus placebo” value was 3.6 points in data set [3] (patients not receiving cholinesterase inhibitors (no SOC)) and 4.1 points in data set [3] (patients on memantine only).
